Assay results reported in patent US11767341B2, “Lincosamide antibiotics and uses thereof” (President and Fellows of Harvard College, priority 2017, dated 2023).
≈ marks a conversion by molar mass, not a printed value. Like-named read-outs stand apart in the source and are kept apart here.

Assays:
Assay in all cases: MIC determination
Format in all cases: cell-based
S. aureus ATCC 29213 = tested on: S. aureus ATCC 29213
S. aureus BAA 977 iErmA = conditions: Staphylococcus aureus, BAA977
[1] = tested on: S. aureus MP-549 msr(a) USA 300; conditions: Staphylococcus aureus, USA300, S. aureus MP-549 msr(a) USA 300
S. aureus MMX 3035 cErmA = conditions: Staphylococcus aureus, MMX3035CERMA; S. aureus MMX 3035 cErmA; read-out: MIC
S. pneumoniae ATCC 49619 = conditions: Streptococcus pneumoniae, ATCC49619
[2] = tested on: S. pneumoniae MMX 3028 cErmB; conditions: Streptococcus pneumoniae, MMX3028CERMB
[3] = tested on: S. pneumoniae MMX 3031 cMefA; conditions: Streptococcus pneumoniae, MMX3031CMEFA
S. pyogenes ATCC 19615 = conditions: Streptococcus pyogenes, ATCC19615; S. pyogenes ATCC 19615; read-out: MIC
[4] = tested on: S. pyogenes MMX 946 Macrolide-Resistant; conditions: Streptococcus pyogenes
E. faecalis ATCC 29212 = conditions: Enterococcus faecalis, ATCC29212, read-out: MIC
[5] = tested on: E. faecalis MMX 847 Macrolide-Resistant; conditions: Enterococcus faecalis, read-out: MIC
K. pneumoniae ATCC 10031 = conditions: Klebsiella pneumoniae, ATCC10031
E. coli ATCC 25922 = conditions: Escherichia coli, ATCC25922, E. coli ATCC 25922; read-out: MIC
E. coli MP-9 ΔTolC = conditions: Escherichia coli
[6] = tested on: E. coli MP-74 LptD mutant; conditions: Escherichia coli
H. influenzae ATCC 49247 = conditions: Haemophilus influenzae, ATCC49247
[7] = Staphylococcus aureus, ATCC29213, S. aureus ATCC 29213, read-out: MIC
[8] = S. pneumoniae ATCC 49619, read-out: MIC
[9] = S. pneumoniae MMX 3028 cErmB, read-out: MIC
[10] = E. faecalis MMX 847 Macrolide-Resistant (MacRes)
[11] = K. pneumoniae ATCC 10031, read-out: MIC
[12] = S. pyogenes MMX 946 MacRes, read-out: MIC
[13] = H. influenzae ATCC 49247, read-out: MIC

Structure (SMILES) | MIC (S. aureus ATCC 29213; [7]) | MIC (S. aureus BAA 977 iErmA) | MIC [1] | MIC (S. aureus MMX 3035 cErmA) | MIC (S. pneumoniae ATCC 49619; [8]) | MIC [2, 9] | MIC [3] | MIC (S. pyogenes ATCC 19615) | MIC (E. faecalis ATCC 29212) | MIC (K. pneumoniae ATCC 10031; [11]) | MIC (E. coli ATCC 25922) | MIC (E. coli MP-9 ΔTolC) | MIC [6] | MIC (H. influenzae ATCC 49247; [13]) | other results
CSC1O[C@H]([C@H](NC(=O)[C@H]2NC[C@@H]3CC=CCO[C@H]32)[C@H](C)Sc2ccc(-c3cccnc3)cc2)C(O)[C@@H](O)[C@H]1O (stereo partly drawn) [FSA-213061] | 0.25 µg/mL (≈ 0.425 µM) | 0.25 µg/mL (≈ 0.425 µM) | 0.5 µg/mL (≈ 0.851 µM) | 64 µg/mL (≈ 109 µM) | ≤ 0.06 µg/mL | 8 µg/mL (≈ 13.6 µM) | 0.125 µg/mL (≈ 0.213 µM) | ≤ 0.06 µg/mL | 16 µg/mL (≈ 27.2 µM) | 32 µg/mL (≈ 54.4 µM) | > 64 µg/mL | 8 µg/mL (≈ 13.6 µM) | 8 µg/mL (≈ 13.6 µM) | – | MIC ([4]; S. pyogenes MMX 946 Macrolide-Resistant (MacRes), read-out: MIC): 4 µg/mL (≈ 6.81 µM); MIC [5, 10]: > 64 µg/mL
CSC1O[C@H]([C@H](NC(=O)[C@H]2NC[C@@H]3C[C@@H](c4ccc(C(F)(F)F)cc4)CCO[C@H]32)[C@H](C)Cl)C(O)[C@@H](O)[C@H]1O (stereo partly drawn) [FSA-509019] | ≤ 0.06 µg/mL | 0.25 µg/mL (≈ 0.429 µM) | – | 64 µg/mL (≈ 110 µM) | ≤ 0.06 µg/mL | – | 0.125 µg/mL (≈ 0.214 µM) | ≤ 0.06 µg/mL | 1 µg/mL (≈ 1.72 µM) | – | – | 16 µg/mL (≈ 27.4 µM) | 32 µg/mL (≈ 54.9 µM) | – | MIC [2]: 16 µg/mL (≈ 27.4 µM); MIC [4]: 32 µg/mL (≈ 54.9 µM); MIC [5, 10]: 64 µg/mL (≈ 110 µM); MIC (K. pneumoniae ATCC 10031): 16 µg/mL (≈ 27.4 µM)
CSC1O[C@H]([C@H](NC(=O)[C@H]2NC[C@@H]3C[C@@H](CCc4ccccc4)CCO[C@H]32)[C@H](C)Cl)C(O)[C@@H](O)[C@H]1O (stereo partly drawn) [FSA-510021] | 0.125 µg/mL (≈ 0.23 µM) | 0.125 µg/mL (≈ 0.23 µM) | 0.125 µg/mL (≈ 0.23 µM) | 4 µg/mL (≈ 7.36 µM) | ≤ 0.06 µg/mL | 4 µg/mL (≈ 7.36 µM) | ≤ 0.06 µg/mL | ≤ 0.06 µg/mL | 0.25 µg/mL (≈ 0.46 µM) | 4 µg/mL (≈ 7.36 µM) | 64 µg/mL (≈ 118 µM) | 4 µg/mL (≈ 7.36 µM) | 4 µg/mL (≈ 7.36 µM) | 1 µg/mL (≈ 1.84 µM) | MIC [4, 12]: 1 µg/mL (≈ 1.84 µM); MIC ([5]; E. faecalis MMX 847 MacRes): 4 µg/mL (≈ 7.36 µM)
CSC1O[C@H]([C@H](NC(=O)[C@H]2NC[C@@H]3C[C@@H](CCc4cccc(F)c4)CCO[C@H]32)[C@H](C)Cl)C(O)[C@@H](O)[C@H]1O (stereo partly drawn) [FSA-510022] | 0.12 µg/mL (≈ 0.214 µM) | 0.12 µg/mL (≈ 0.214 µM) | 0.12 µg/mL (≈ 0.214 µM) | 2 µg/mL (≈ 3.56 µM) | ≤ 0.06 µg/mL | 4 µg/mL (≈ 7.13 µM) | ≤ 0.06 µg/mL | ≤ 0.06 µg/mL | 0.25 µg/mL (≈ 0.446 µM) | 2 µg/mL (≈ 3.56 µM) | 32 µg/mL (≈ 57 µM) | 4 µg/mL (≈ 7.13 µM) | 4 µg/mL (≈ 7.13 µM) | 1 µg/mL (≈ 1.78 µM) | MIC [4, 12]: 0.5 µg/mL (≈ 0.891 µM); MIC ([5]; E. faecalis MMX 847 MacRes): 2 µg/mL (≈ 3.56 µM)
CSC1O[C@H]([C@H](NC(=O)[C@H]2NC[C@@H]3CC(c4ccc(C)cc4)CCO[C@H]32)[C@H](C)Cl)C(O)[C@@H](O)[C@H]1O (stereo partly drawn) [FSA-511044] | 0.25 µg/mL (≈ 0.473 µM) | – | 0.5 µg/mL (≈ 0.945 µM) | – | – | – | – | ≤ 0.06 µg/mL | 2 µg/mL (≈ 3.78 µM) | 32 µg/mL (≈ 60.5 µM) | > 64 µg/mL | 16 µg/mL (≈ 30.2 µM) | 16 µg/mL (≈ 30.2 µM) | – | MIC (S. pneumoniae ATCC 49619): 0.5 µg/mL (≈ 0.945 µM); MIC (H. influenzae ATCC 49247): 16 µg/mL (≈ 30.2 µM)
COc1ccc(C2CCO[C@@H]3[C@H](CN[C@@H]3C(=O)N[C@H]([C@H](C)Cl)[C@H]3OC(SC)[C@H](O)C(O)C3O)C2)cc1 (stereo partly drawn) [FSA-511045] | – | – | 0.25 µg/mL (≈ 0.459 µM) | – | ≤ 0.06 µg/mL | – | – | ≤ 0.06 µg/mL | 1 µg/mL (≈ 1.83 µM) | 16 µg/mL (≈ 29.4 µM) | > 64 µg/mL | 8 µg/mL (≈ 14.7 µM) | 32 µg/mL (≈ 58.7 µM) | 16 µg/mL (≈ 29.4 µM) | MIC (S. aureus ATCC 29213; Staphylococcus aureus, ATCC29213): 0.5 µg/mL (≈ 0.917 µM)
CSC1O[C@H]([C@H](NC(=O)[C@H]2NC[C@@H]3C[C@@H](c4ccc(C#N)cc4)CCO[C@H]32)[C@H](C)Cl)C(O)[C@@H](O)[C@H]1O (stereo partly drawn) [FSA-511046] | – | – | 0.5 µg/mL (≈ 0.926 µM) | – | ≤ 0.06 µg/mL | – | – | ≤ 0.06 µg/mL | 1 µg/mL (≈ 1.85 µM) | – | > 64 µg/mL | 8 µg/mL (≈ 14.8 µM) | 32 µg/mL (≈ 59.3 µM) | – | MIC (S. aureus ATCC 29213; S. aureus ATCC 29213): 1 µg/mL (≈ 1.85 µM); MIC (K. pneumoniae ATCC 10031): 16 µg/mL (≈ 29.6 µM); MIC (H. influenzae ATCC 49247): 16 µg/mL (≈ 29.6 µM)
